Paper PMC13324472, “A family of ribosome hibernation factors widespread in Archaea” (Nature Communications, 2026)

What follows are compounds tested against T1, HibA-CM (isolated HibA N-terminal domain, CBS module) (Pyrococcus abyssi, UniProt Q9UYR4) (assay: isothermal titration calorimetry).
T1 construct: gene PAB0961; N-terminal CBS module (residues 1-269 given as the module), made by stop codon at position 272; N-terminal His6 tag, expressed in E. coli Rosetta, Talon and Superdex 200
Format: binding

T1 sequence (Q9UYR4 entry or part of it): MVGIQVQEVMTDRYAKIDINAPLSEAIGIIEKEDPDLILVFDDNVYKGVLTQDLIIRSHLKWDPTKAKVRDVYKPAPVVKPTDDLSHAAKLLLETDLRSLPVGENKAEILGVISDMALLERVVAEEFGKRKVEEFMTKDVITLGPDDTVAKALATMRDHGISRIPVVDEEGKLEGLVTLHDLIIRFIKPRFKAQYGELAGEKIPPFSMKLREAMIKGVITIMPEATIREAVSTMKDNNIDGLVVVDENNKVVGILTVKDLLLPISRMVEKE

Q: How did the Kd turn out when `Nc1ncnc2c1ncn2[C@@H]1O[C@H](COP(=O)(O)OP(=O)(O)O)[C@@H](O)[C@H]1O` [ADP] was run?
A: 65 ± 1 µM

Q: Which Kd does the source give for `Nc1ncnc2c1ncn2[C@@H]1O[C@H](COP(=O)(O)O)[C@@H](O)[C@H]1O` [AMP] here?
A: 12 ± 2 µM

Q: Which Kd does the source give for `Nc1ncnc2c1ncn2[C@@H]1O[C@H](COP(=O)(O)OP(=O)(O)OP(=O)(O)O)[C@@H](O)[C@H]1O` [ATP] here?
A: 113 ± 21 µM
